{"source": "patent US20130224294A1", "about": "“DRY PROCESSING OF ATAZANAVIR” (priority 2010, published 2013)", "origin": "cited, not measured here", "key": {"[1]": {"conditions": "at 24±3° C.; base formed by dissociation of the salt in the presence of water"}, "[2]": {"conditions": "free base"}}}
{"smiles": "COC(=O)N[C@H](C(=O)N[C@@H](Cc1ccccc1)[C@@H](O)CN(Cc1ccc(-c2ccccn2)cc1)NC(=O)[C@@H](NC(=O)OC)C(C)(C)C)C(C)(C)C", "note": "[Atazanavir]", "values": [{"measurement": "solubility", "setting": "[1]", "result": "< 1", "unit": "µg/mL"}, {"measurement": "bioavailability", "setting": "[2]", "result": "does not have sufficient bioavailability"}, {"measurement": "BCS class (high permeability/low solubility)", "result": "BCS II"}]}
